A short description of data set [1]: HPLC assay for profiling solution reactivity and stability of purine adduct fragments. Format: physicochemical. The method, then: HPLC assay for profiling solution reactivity and stability of purine adduct fragments: The following reagents were prepared and stored on ice prior to use. 0.1 M solution of caffeine in acetonitrile, 1.0 M solution of amino acid mimetic (butanethiol, n-butylamine, p-cresol, propionamide and butyric acid), tetramethylguanidine (TMG), 1 M HOAc in ACN and 10 mM solution of purine fragment (e.g., one of the purine adducts shown in Scheme 8, above) in ACN mixture. 500 μL of fragment solution (i.e. purified Pa-1 through Pa-6) were transferred to a dram vial on ice. To the mixture, 5.5 μL of TMG and 5.5 μL of respective amino acid mimetic were added and solutions were stirred on ice for 6 h. To monitor reactivity, 50 μL aliquots were removed at indicated time points and quenched with 10 μL of a 1:1 mixture of caffeine and HOAc. Samples were injected (1 μL) and analyzed by reverse-phase HPLC on a Shimadzu 1100 Series spectrometer with UV detection at 254 nm. Reaction progress was evaluated by monitoring consumption of starting material (purine fragment) normalized to caffeine standard. Chromatographic separation was performed using a Phenomenex Kinetex C18 column (2.6 μm, 50×4.6 mm). Mobile phases A and B were composed of H2O+0.1% HOAc and ACN+0.1% HOAc, respectively. […] All purine fragment peak AUCs used for calculations were normalized to caffeine standard AUCs at respective time points to account for run-to-run variations by HPLC. The amount of purine fragment consumed (% starting material) was plotted as a function of time.

The nature of data set [2]: HPLC assay for profiling solution reactivity and stability of purine inhibitors. It is filed as physicochemical. The conditions noted are these: N7 versus N9 tautomer, on ice 6 h. As for the experimental part: HPLC assay for profiling solution reactivity and stability of purine inhibitors—The following reagents were prepared and stored on ice prior to use. 0.1 M solution of caffeine in acetonitrile, 1.0 M solution of amino acid mimetic (butanethiol), tetramethylguanidine (TMG), 1 M HOAc in ACN and 10 mM solution of purine fragment in ACN mixture. 500 μL of fragment solution were transferred to a dram vial on ice. To the mixture, 5.5 μL of TMG and 5.5 μL of respective amino acid mimetic were added and solutions were stirred on ice for 6 h. To monitor reactivity, 50 μL aliquots were removed at indicated time points and quenched with 10 μL of a 1:1 mixture of caffeine and HOAc. Samples were injected (1 μL) and analyzed by reverse-phase HPLC on a Shimadzu 1100 Series spectrometer (Shimadzu Corporation, Kyoto, Japan) with UV detection at 254 nm. Reaction progress was evaluated by monitoring consumption of starting material (purine fragment) normalized to caffeine standard. Chromatographic separation was performed using a Phenomenex Kinetex C18 column (2.6 μm, 50×4.6 mm; Phenomenex, Torrance, Calif., United States of America). Mobile phases A and B were composed of H2O+0.1% HOAc and ACN+0.1% HOAc, respectively. […] All purine fragment peak AUCs used for calculations were normalized to caffeine standard AUCs at respective time points to account for run-to-run variations by HPLC. […]

On to `C#CCn1cnc2c(SCCCC)nc(F)nc21` [Pa-6, 6-(butylthio)-2-fluoro-9-(prop-2-yn-1-yl)-9H-purine], for which the preference between nucleophiles result in data set [1] (butanethiol versus p-cresol) was “equivalent reactivity against butanethiol and p-cresol”. In addition, in data set [1] (on ice 6 h), the reactivity with nucleophiles result is given as “mild reactivity”. Consider `O=S(=O)(c1ccc(F)cc1)n1cnc2nc(Cl)nc(Cl)c21` [Pi-13, 2,6-dichloro-7-((4-fluorophenyl)sulfonyl)-7H-purine], for which, in data set [2], the reactivity for butanethiol entry is given as “essentially equivalent reactivity”. The same measure, in the same setting: the result for `O=S(=O)(c1ccc(F)cc1)n1cnc2c(Cl)nc(Cl)nc21` [Pi-14, 2,6-dichloro-9-((4-fluorophenyl)sulfonyl)-9H-purine] reads “essentially equivalent reactivity”.

The record behind these values is patent US20220251085A1, “CYSTEINE BINDING COMPOSITIONS AND METHODS OF USE THEREOF” (University of Virginia Patent Foundation, priority 2019, published 2022).
